In publication PMC12562668, “Targeting NFAT2 for Reversing the P-gp-Mediated Multidrug Resistance to Paclitaxel by Manidipine” (Cancers, 2025):

Columns and labels:
P-glycoprotein (P-gp) = molecular target: T1, P-glycoprotein (P-gp) (Homo sapiens, UniProt P08183); assay: Pgp-Glo P-gp ATPase assay: stimulation of basal activity; also inhibition of verapamil-stimulated activity; format: biochemical
T1 construct: gene ABCB1

NFAT2 = molecular target: T2, NFAT2 (Homo sapiens, UniProt O95644); assay: DARTS in A549/T cell lysate with NFAT2 immunoblot; format: cell-based
T2 construct: gene NFATC1
T2 sequence (O95644 1-943): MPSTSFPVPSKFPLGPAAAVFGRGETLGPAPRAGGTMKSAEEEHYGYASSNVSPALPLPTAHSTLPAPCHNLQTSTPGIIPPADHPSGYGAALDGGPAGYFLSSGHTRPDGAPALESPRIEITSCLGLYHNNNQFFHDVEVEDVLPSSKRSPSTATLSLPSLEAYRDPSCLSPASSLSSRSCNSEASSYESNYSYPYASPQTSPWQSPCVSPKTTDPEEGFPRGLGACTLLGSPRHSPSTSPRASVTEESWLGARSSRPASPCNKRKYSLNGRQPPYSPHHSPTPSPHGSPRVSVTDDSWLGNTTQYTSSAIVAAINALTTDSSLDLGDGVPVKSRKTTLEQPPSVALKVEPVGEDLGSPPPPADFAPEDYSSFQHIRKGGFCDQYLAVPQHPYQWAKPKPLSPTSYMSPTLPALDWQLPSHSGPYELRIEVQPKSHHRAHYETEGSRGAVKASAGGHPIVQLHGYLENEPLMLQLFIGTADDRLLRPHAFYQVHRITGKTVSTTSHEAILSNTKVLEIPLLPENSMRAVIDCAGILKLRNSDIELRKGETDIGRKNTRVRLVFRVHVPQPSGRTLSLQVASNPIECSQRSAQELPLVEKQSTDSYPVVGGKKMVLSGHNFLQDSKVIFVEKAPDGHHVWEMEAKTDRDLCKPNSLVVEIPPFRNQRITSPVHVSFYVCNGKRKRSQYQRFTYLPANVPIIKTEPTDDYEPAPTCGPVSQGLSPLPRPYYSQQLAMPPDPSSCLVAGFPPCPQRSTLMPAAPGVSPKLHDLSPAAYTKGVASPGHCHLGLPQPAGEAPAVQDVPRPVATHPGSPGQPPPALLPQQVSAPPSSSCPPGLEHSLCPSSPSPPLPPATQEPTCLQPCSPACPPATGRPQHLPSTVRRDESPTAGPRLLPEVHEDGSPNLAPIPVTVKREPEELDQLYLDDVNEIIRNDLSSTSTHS

T1 sequence (P08183 whole entry): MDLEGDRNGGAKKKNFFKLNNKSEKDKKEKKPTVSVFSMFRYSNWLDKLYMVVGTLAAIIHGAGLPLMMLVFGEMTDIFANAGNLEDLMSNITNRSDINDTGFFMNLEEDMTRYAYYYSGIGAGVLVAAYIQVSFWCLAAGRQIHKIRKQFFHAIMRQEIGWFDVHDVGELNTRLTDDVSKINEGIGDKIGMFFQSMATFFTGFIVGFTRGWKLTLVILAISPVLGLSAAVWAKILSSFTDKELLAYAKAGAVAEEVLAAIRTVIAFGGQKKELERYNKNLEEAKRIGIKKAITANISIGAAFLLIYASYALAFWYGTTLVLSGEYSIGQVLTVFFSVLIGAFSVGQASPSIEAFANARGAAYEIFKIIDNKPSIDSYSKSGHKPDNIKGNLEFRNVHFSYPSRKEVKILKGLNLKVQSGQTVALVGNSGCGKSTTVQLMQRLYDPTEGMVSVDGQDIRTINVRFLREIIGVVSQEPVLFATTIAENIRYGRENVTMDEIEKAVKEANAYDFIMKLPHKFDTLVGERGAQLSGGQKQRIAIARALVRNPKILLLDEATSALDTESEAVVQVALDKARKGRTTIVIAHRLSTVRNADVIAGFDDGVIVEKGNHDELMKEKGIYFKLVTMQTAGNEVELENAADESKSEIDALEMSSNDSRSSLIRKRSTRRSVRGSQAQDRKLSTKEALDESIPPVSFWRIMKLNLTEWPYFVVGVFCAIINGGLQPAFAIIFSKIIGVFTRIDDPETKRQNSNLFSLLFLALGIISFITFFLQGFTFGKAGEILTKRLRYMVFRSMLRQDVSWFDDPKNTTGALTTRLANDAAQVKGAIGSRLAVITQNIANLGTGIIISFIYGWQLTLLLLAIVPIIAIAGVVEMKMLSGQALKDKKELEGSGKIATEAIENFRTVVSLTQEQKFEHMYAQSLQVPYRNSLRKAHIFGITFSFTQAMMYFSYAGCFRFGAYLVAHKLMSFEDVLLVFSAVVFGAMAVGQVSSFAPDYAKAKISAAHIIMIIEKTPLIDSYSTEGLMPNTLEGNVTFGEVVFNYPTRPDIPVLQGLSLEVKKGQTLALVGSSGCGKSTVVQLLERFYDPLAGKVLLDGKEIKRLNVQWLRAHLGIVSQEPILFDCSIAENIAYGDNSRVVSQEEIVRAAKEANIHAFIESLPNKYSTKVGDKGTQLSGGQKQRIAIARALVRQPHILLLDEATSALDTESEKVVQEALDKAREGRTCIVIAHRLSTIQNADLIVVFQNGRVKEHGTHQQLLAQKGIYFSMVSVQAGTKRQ

EC50 (P-glycoprotein (P-gp)): 4.16 µM
Compound: COC(=O)C1=C(C)NC(C)=C(C(=O)OCCN2CCN(C(c3ccccc3)c3ccccc3)CC2)C1c1cccc([N+](=O)[O-])c1 (centres unmarked) [MA, manidipine]
DARTS in A549/T cell lysate with NFAT2 immunoblot (NFAT2): MA effectively protected the NFAT2 protein from proteolysis (Figure 7F,G), thereby indicating that MA is a ligand of NFAT2
